Test results published in US3989730A, “Bone-seeking technetium-99m complex” (priority 1973, dated 1976).
Like-named read-outs stand apart in the source and are kept apart here.

Key:
[1] = 2 Hrs
[2] = Simultaneous distribution of 99mTc-EHDP and 85Sr in rabbits at 1-24 hours after intravenous injection; format: in vivo, adult New Zealand albino rabbits; settings: for Blood, % Dose in Whole Organ: blood as 7 % of body weight; for Bone(Avg), % dose in whole organ: bone as 10 % of body weight; for Marrow, % Dose in Whole Organ: marrow as 2.2 % of body weight
Method: Adult New Zealand albino rabbits having an average weight of 3.8 kg were utilized. Strontium-85 was employed as a standard for comparison. […] Each dosage is contained in a volume of 1 ml.
Multiple samples were counted from the tibia, femur, spine and pelvic bones; the total activity in the skeleton was estimated by assuming the whole skeleton consisted of equal proportions by weight of tibia, spine, femur and pelvis and that the skeletal mass was 10% of the body weight. […] The whole liver and both kidneys were weighed and multiple samples from each were counted to measure the total activity in each organ.

[3] = test system: callous of three week-old fractures of tibia; assay: Localization in callous of three week-old tibial fractures (rabbits), compared with strontium-85; format: in vivo, albino rabbits
Method: Adult New Zealand albino rabbits having an average weight of 3.8 kg were utilized. Strontium-85 was employed as a standard for comparison. In a typical experiment 20-250 μCi (i.e., containing approximately 1 mg/kg as the free acid of body weight) of 99mTc EHDP were injected intravenously into the rabbits through the marginal ear vein and compared with 10-20 μ Ci 85 Sr chloride administered simutaneously. Each dosage is contained in a volume of 1 ml.
The animals were sacrificed serially from 1 to 24 hours after injection and the activities in major organs were determined by counting multiple samples from each organ in a scintillation well counter (the technetium-99m counts were corrected for the Compton contributions from the strontium-85 activity in the technetium-99m energy window). Multiple samples were counted from the tibia, femur, spine and pelvic bones; the total activity in the skeleton was estimated by assuming the whole skeleton consisted of equal proportions by weight of tibia, spine, femur and pelvis and that the skeletal mass was 10% of the body weight. The red marrow was sampled from the femur and the total marrow was assumed to be 2.2% of the total body weight. Similarly, blood volume was assumed to be 7% and the skeletal muscle 43% of the body weight. The whole liver and both kidneys were weighed and multiple samples from each were counted to measure the total activity in each organ.
In another series of experiments carried out as described above, localization of technetium from its tin-phosphonate complex was determined in the callous of three week-old fractures of tibia in albino rabbits, again in comparison with strontium-85. Comparative radioassay of technetium-99m administered as the pertechnetate was measured in the callous of tibial fractures in rabbits at one and four hours after administration.

tin-1-hydroxy-ethane-1,1-diphosphonate [99mTc-EHDP]
Blood, % Dose in Whole Organ ([1]; EHDP 0.01 mg/kg): 0.99 % Dose | Kidneys, % Dose in Whole Organ ([1]; EHDP 0.01 mg/kg): 0.81 % Dose | Liver, % Dose in Whole Organ ([1]; EHDP 0.01 mg/kg): 0.53 % Dose | Marrow, % Dose in Whole Organ ([1]; EHDP 0.01 mg/kg): 0.34 % Dose | Muscle, % Dose in Whole Organ ([1]; EHDP 0.01 mg/kg): 0.78 % Dose | One Femur, % Dose in Whole Organ ([1]; EHDP 0.01 mg/kg): 2.20 % Dose | One Tibia, % Dose in Whole Organ ([1]; EHDP 0.01 mg/kg): 2.05 % Dose | Urine, % Dose ([1]; EHDP 0.01 mg/kg): 46.7 % Dose | Blood, % Dose in Whole Organ ([1]; EHDP 0.05 mg/kg): 1.35 % Dose | Kidneys, % Dose in Whole Organ ([1]; EHDP 0.05 mg/kg): 2.9 % Dose | Liver, % Dose in Whole Organ ([1]; EHDP 0.05 mg/kg): 1.61 % Dose | Marrow, % Dose in Whole Organ ([1]; EHDP 0.05 mg/kg): 0.78 % Dose | Muscle, % Dose in Whole Organ ([1]; EHDP 0.05 mg/kg): 1.33 % Dose | One Femur, % Dose in Whole Organ ([1]; EHDP 0.05 mg/kg): 2.44 % Dose | One Tibia, % Dose in Whole Organ ([1]; EHDP 0.05 mg/kg): 2.22 % Dose | Urine, % Dose ([1]; EHDP 0.05 mg/kg): 37.3 % Dose | Blood, % Dose in Whole Organ ([1]; EHDP 0.1 mg/kg): 1.02 % Dose | Kidneys, % Dose in Whole Organ ([1]; EHDP 0.1 mg/kg): 0.63 % Dose | Liver, % Dose in Whole Organ ([1]; EHDP 0.1 mg/kg): 0.19 % Dose | Marrow, % Dose in Whole Organ ([1]; EHDP 0.1 mg/kg): 0.20 % Dose | Muscle, % Dose in Whole Organ ([1]; EHDP 0.1 mg/kg): 0.98 % Dose | One Femur, % Dose in Whole Organ ([1]; EHDP 0.1 mg/kg): 2.82 % Dose | One Tibia, % Dose in Whole Organ ([1]; EHDP 0.1 mg/kg): 2.44 % Dose | Urine, % Dose ([1]; EHDP 0.1 mg/kg): 30.4 % Dose | Blood, % Dose in Whole Organ ([1]; EHDP 0.5 mg/kg): 1.503 % Dose | Kidneys, % Dose in Whole Organ ([1]; EHDP 0.5 mg/kg): 1.10 % Dose | Liver, % Dose in Whole Organ ([1]; EHDP 0.5 mg/kg): 0.260 % Dose | Marrow, % Dose in Whole Organ ([1]; EHDP 0.5 mg/kg): 0.19 % Dose | Muscle, % Dose in Whole Organ ([1]; EHDP 0.5 mg/kg): 1.22 % Dose | One Femur, % Dose in Whole Organ ([1]; EHDP 0.5 mg/kg): 1.75 % Dose | One Tibia, % Dose in Whole Organ ([1]; EHDP 0.5 mg/kg): 1.43 % Dose | Urine, % Dose ([1]; EHDP 0.5 mg/kg): 55.37 % Dose | Blood, % dose / 1 % body weight ([2]; 1 Hr): 1.23 % dose / 1 % body weight | Bone(Avg), % dose / 1 % body weight ([2]; 1 Hr): 4.66 % dose / 1 % body weight | Femur, % dose / 1 % body weight ([2]; 1 Hr): 3.85 % dose / 1 % body weight | Kidneys, % Dose in Whole Organ ([2]; 1 Hr): 2.40 % dose | Kidneys, % dose / 1 % body weight ([2]; 1 Hr): 3.93 % dose / 1 % body weight | Liver, % Dose in Whole Organ ([2]; 1 Hr): 0.80 % dose | Liver, % dose / 1 % body weight ([2]; 1 Hr): 0.30 % dose / 1 % body weight | Marrow, % dose / 1 % body weight ([2]; 1 Hr): 0.36 % dose / 1 % body weight | Muscle, % dose / 1 % body weight ([2]; 1 Hr): 0.15 % dose / 1 % body weight | One Femur, % Dose in Whole Organ ([2]; 1 Hr): 0.82 % dose | Pelvis, % dose / 1 % body weight ([2]; 1 Hr): 7.15 % dose / 1 % body weight | Spine, % dose / 1 % body weight ([2]; 1 Hr): 5.87 % dose / 1 % body weight | Tibia, % dose / 1 % body weight ([2]; 1 Hr): 2.17 % dose / 1 % body weight | Urine, % Dose ([2]; 1 Hr): 30.9 % dose | Blood, % Dose in Whole Organ ([2]; 1 Hr): 8.61 % dose | Bone(Avg), % dose in whole organ ([2]; 1 Hr): 46.6 % dose | Marrow, % Dose in Whole Organ ([2]; 1 Hr): 0.70 % dose | Blood, % dose / 1 % body weight ([2]; 2 Hrs): 0.37 % dose / 1 % body weight | Bone(Avg), % dose / 1 % body weight ([2]; 2 Hrs): 4.82 % dose / 1 % body weight | Femur, % dose / 1 % body weight ([2]; 2 Hrs): 3.94 % dose / 1 % body weight | Kidneys, % Dose in Whole Organ ([2]; 2 Hrs): 1.22 % dose | Kidneys, % dose / 1 % body weight ([2]; 2 Hrs): 2.72 % dose / 1 % body weight | Liver, % Dose in Whole Organ ([2]; 2 Hrs): 0.42 % dose | Liver, % dose / 1 % body weight ([2]; 2 Hrs): 0.18 % dose / 1 % body weight | Marrow, % dose / 1 % body weight ([2]; 2 Hrs): 0.17 % dose / 1 % body weight | Muscle, % dose / 1 % body weight ([2]; 2 Hrs): 0.04 % dose / 1 % body weight | One Femur, % Dose in Whole Organ ([2]; 2 Hrs): 0.84 % dose | Pelvis, % dose / 1 % body weight ([2]; 2 Hrs): 7.40 % dose / 1 % body weight | Spine, % dose / 1 % body weight ([2]; 2 Hrs): 5.44 % dose / 1 % body weight | Tibia, % dose / 1 % body weight ([2]; 2 Hrs): 2.49 % dose / 1 % body weight | Urine, % Dose ([2]; 2 Hrs, 1 mg/kg): 51.8 % dose | Blood, % Dose in Whole Organ ([2]; 2 Hrs): 2.58 % dose | Bone(Avg), % dose in whole organ ([2]; 2 Hrs): 48.2 % dose | Marrow, % Dose in Whole Organ ([2]; 2 Hrs): 0.38 % dose | Blood, % dose / 1 % body weight ([2]; 4 Hrs): 0.13 % dose / 1 % body weight | Bone(Avg), % dose / 1 % body weight ([2]; 4 Hrs): 4.74 % dose / 1 % body weight | Femur, % dose / 1 % body weight ([2]; 4 Hrs): 3.86 % dose / 1 % body weight | Kidneys, % Dose in Whole Organ ([2]; 4 Hrs): 0.94 % dose | Kidneys, % dose / 1 % body weight ([2]; 4 Hrs): 1.95 % dose / 1 % body weight | Liver, % Dose in Whole Organ ([2]; 4 Hrs): 0.28 % dose | Liver, % dose / 1 % body weight ([2]; 4 Hrs): 0.11 % dose / 1 % body weight | Marrow, % dose / 1 % body weight ([2]; 4 Hrs): 0.38 % dose / 1 % body weight | Muscle, % dose / 1 % body weight ([2]; 4 Hrs): 0.03 % dose / 1 % body weight | One Femur, % Dose in Whole Organ ([2]; 4 Hrs): 0.81 % dose | Pelvis, % dose / 1 % body weight ([2]; 4 Hrs): 7.41 % dose / 1 % body weight | Spine, % dose / 1 % body weight ([2]; 4 Hrs): 5.52 % dose / 1 % body weight | Tibia, % dose / 1 % body weight ([2]; 4 Hrs): 2.16 % dose / 1 % body weight | Urine, % Dose ([2]; 4 Hrs, 1 mg/kg): 53.4 % dose | Blood, % Dose in Whole Organ ([2]; 4 Hrs): 0.89 % dose | Bone(Avg), % dose in whole organ ([2]; 4 Hrs): 47.4 % dose | Marrow, % Dose in Whole Organ ([2]; 4 Hrs): 0.83 % dose | Blood, % dose / 1 % body weight ([2]; 24 Hrs): 0.07 % dose / 1 % body weight | Bone(Avg), % dose / 1 % body weight ([2]; 24 Hrs): 4.14 % dose / 1 % body weight | Femur, % dose / 1 % body weight ([2]; 24 Hrs): 3.42 % dose / 1 % body weight | Kidneys, % Dose in Whole Organ ([2]; 24 Hrs): 0.63 % dose | Kidneys, % dose / 1 % body weight ([2]; 24 Hrs): 1.29 % dose / 1 % body weight | Liver, % Dose in Whole Organ ([2]; 24 Hrs): 0.43 % dose | Liver, % dose / 1 % body weight ([2]; 24 Hrs): 0.28 % dose / 1 % body weight | Marrow, % dose / 1 % body weight ([2]; 24 Hrs): 0.19 % dose / 1 % body weight | Muscle, % dose / 1 % body weight ([2]; 24 Hrs): 0.02 % dose / 1 % body weight | One Femur, % Dose in Whole Organ ([2]; 24 Hrs): 0.76 % dose | Pelvis, % dose / 1 % body weight ([2]; 24 Hrs): 5.70 % dose / 1 % body weight | Spine, % dose / 1 % body weight ([2]; 24 Hrs): 5.30 % dose / 1 % body weight | Tibia, % dose / 1 % body weight ([2]; 24 Hrs): 2.10 % dose / 1 % body weight | Blood, % Dose in Whole Organ ([2]; 24 Hrs): 0.49 % dose | Bone(Avg), % dose in whole organ ([2]; 24 Hrs): 41.5 % dose | Marrow, % Dose in Whole Organ ([2]; 24 Hrs): 0.42 % dose | skeletal concentrations compared with 85Sr ([2]; rabbits): similar | soft tissue and blood concentrations compared with 85Sr ([2]; various times, rabbits): much lower than those for 85 Sr | Callus, % dose / 1 % body weight ([3]; 1 Hr): 24.7 % dose / 1 % body weight | Callus, % dose / 1 % body weight ([3]; 4 Hrs): 28.9 % dose / 1 % body weight | concentration in the callous compared with 85Sr ([3]; rabbits): somewhat lower than that of 85 Sr
